Blank lines part the entries; values can stand above or below the compound they belong to.
Columns and labels:
[1] = test system: collagenase from Chlostridium histolyticum; test: Collagenase inhibition, substrate C FALGPA; type: biochemical; settings: 30 min, 20° C.
Procedure: (§1) The biochemical test of collagenase inhibition was realized with a collagenase from Chlostridium histolyticum in a chromogenic synthetic substrate C: FALGPA (furylacryloyl-Leu-Gly-Pro-Ala), a specific substrate for collagenase, which […] by the enzyme. This substrate was obtained from SIGMA.
(§2) The amount of extracts used was 0.3% by weight, and the incubation time was 30 min (20° C.). The inhibition was investigated by determining the optical density “OD” at 234 nm.

[2] = target: collagenase from Chlostridium histolyticum; test: Collagenase inhibition, chromogenic synthetic substrate C (FALGPA); type: biochemical; settings: incubation 30 min, 20° C., OD at 234 nm
Procedure: as §1, §2

Human MMP-1 = test: Release of MMP-1 from dermal fibroblasts with and without UVA radiation; type: cell-based; settings: concentration 0.1 μM
Excerpt: The ability of leaf extracts from Argania spinosa to reduce the toxic effect of UVA rays was investigated. This in vitro test investigates the ability to reduce the content of matrix metalloproteinases, such as, for example, MMP-1, which are released by human fibroblasts following UVA radiation. More MMP are released under the influence of UVA radiation. UVA rays were chosen as the model since they penetrate into the dermis, where they induce oxidative stress, which accelerates skin aging. Furthermore, it is already known that the release of matrix metalloproteinases increases during the normal aging process of the skin. Inhibition of the MMP would thus counteract the aging process of the skin. The in vitro system used was a culture of dermal fibroblasts, and the parameter determined was the release of MMP-1 from these fibroblasts under the influence of UV radiation. To carry out the experiment, a fibroblast culture was prepared in a defined culture medium (DMEM) with fetal calf serum and inoculated 2–3 days later with the test substances. […] The abbreviation TIMP is understood as meaning a naturally occurring inhibitor of the metalloproteinase under the name “tissue inhibitor of matrix metalloproteinase”. The MMP and TIMP were determined using two different kits, which are commercially available under the name RPN2610 and RPN2611 from Amersham. […]

TIMP-1 = test: Content of TIMP-1 in dermal fibroblast culture with and without UVA radiation; type: cell-based, human; settings: concentration 0.1 μM
Procedure: To carry out the experiment, a fibroblast culture was prepared in a defined culture medium (DMEM) with fetal calf serum and inoculated 2–3 days later with the test substances. […] The abbreviation TIMP is understood as meaning a naturally occurring inhibitor of the metalloproteinase under the name “tissue inhibitor of matrix metalloproteinase”. The MMP and TIMP were determined using two different kits, which are commercially available under the name RPN2610 and RPN2611 from Amersham. The data given is the amount of MMP-1 and TIMP-1 in ng/ml from a test series with triple determination.

[3] = test system: MMP-1 released by human dermal fibroblasts; test: Release of MMP-1 by dermal fibroblasts with and without UVA radiation; type: cell-based
Excerpt: (§3) The ability of leaf extracts from Argania spinosa to reduce the toxic effect of UVA rays was investigated. This in vitro test investigates the ability to reduce the content of matrix metalloproteinases, such as, for example, MMP-1, which are released by human fibroblasts following UVA radiation. More MMP are released under the influence of UVA radiation. UVA rays were chosen as the model since they penetrate into the dermis, where they induce oxidative stress, which accelerates skin aging. Furthermore, it is already known that the release of matrix metalloproteinases increases during the normal aging process of the skin. Inhibition of the MMP would thus counteract the aging process of the skin.
(§4) The in vitro system used was a culture of dermal fibroblasts, and the parameter determined was the release of MMP-1 from these fibroblasts under the influence of UV radiation.
(§5) To carry out the experiment, a fibroblast culture was prepared in a defined culture medium (DMEM) with fetal calf serum and inoculated 2–3 days later with the test substances. […] After the end of the irradiation, the fibroblast culture was incubated again for 2 days, and then, on a sample of the supernatant of the culture solution, the content of MMP-1 and TIMP-1 was determined. […]
(§6) The MMP and TIMP were determined using two different kits, which are commercially available under the name RPN2610 and RPN2611 from Amersham. […]

[4] = test system: TIMP-1 in human dermal fibroblast culture; test: Content of TIMP-1 in supernatant of dermal fibroblasts with and without UVA radiation; type: cell-based
Excerpt: as §3, §4, §5, §6

tyrosinase [5] = test: Tyrosinase inhibition in tubo; type: biochemical; settings: L-DOPA substrate; dopachrome optical density 475 nm; concentration for 50% inhibition
Procedure: (§8) Tyrosinase inhibition: L-DOPA was mixed with tyrosinase and the extract to be tested. The optical density of the dopachrome was analyzed at 475 nm. The kinetics were then investigated and the concentration for a 50% strength inhibition (EC50) was determined.

B16 melanocytes = test: Inhibition of melanogenesis on B16 melanocytes; type: cell-based; settings: concentration 0.0003% by wt.; ratio of proportion of proteins to content of melanin
Procedure: 2. Inhibition of melanogenesis on B16 melanocytes: The B16 melanocytes are cultivated in a defined medium (DMEM with 10% fetal calf serum) and incubated for 3 days at 37° C. and 5% CO2. The growth medium was replaced by the defined medium without calf serum, which comprised a certain content of the extracts to be tested. After further incubation for 3 days, the proportion of intact cells was determined via the content of cell proteins in accordance with the Bradford method (Anal. Biochem. 72, 248–254, 1976), and the content of melanin formed was determined by analyzing the optical density at 475 nm in accordance with the method described by Ando et al. 17th IFSCC Congress—Yokohama, 2, 909–918, 1992.
The results were determined as activity index in the ratio of proportion of proteins to content of melanin: the greater the index, the higher the inhibition activity and the lower the stimulation of melanogenesis.

Tyrosinase [6] = settings: concentration for 50% inhibition; L-DOPA; dopachrome at 475 nm
Procedure: as §8

pancreas elastase [7] = target: pancreas elastase (Homo sapiens, UniProt Q9UNI1); test: Inhibition of the elastase activity; type: biochemical; settings: natural substrate B (elastin/Congo Red); 30 min, 20° C.
Sequence of pancreas elastase (Q9UNI1 19-258): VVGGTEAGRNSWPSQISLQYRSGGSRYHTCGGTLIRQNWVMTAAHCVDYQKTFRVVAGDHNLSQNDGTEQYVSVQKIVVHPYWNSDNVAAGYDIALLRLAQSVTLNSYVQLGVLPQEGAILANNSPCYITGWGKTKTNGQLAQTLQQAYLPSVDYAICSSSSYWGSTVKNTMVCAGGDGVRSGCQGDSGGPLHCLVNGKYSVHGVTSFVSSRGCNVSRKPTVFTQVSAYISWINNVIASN
Sequence of pancreas elastase (Homo sapiens, UniProt Q9UNI1) (Q9UNI1 19-258): as above
Procedure: (§7) Serine proteases, such as, for example, elastase or collagenase, bring about the degradation of elastin, proteoglycans and collagen and thus cause a weakening of the connective tissue. In the following test, the inhibiting properties of the extracts toward a pancreas elastase were investigated in two systems, firstly in a chromogenic synthetic substrate A and secondly in a natural substrate B (elastin/Congo Red). The amount of extracts used was 0.3% by weight, and the incubation time was 30 min (20° C.). The inhibition was monitored photometrically at 410 and 520 nm, and the standard used was α1-antitrypsin ([…]).

pancreas elastase [8] = test: Inhibition of the elastase activity; type: biochemical; settings: chromogenic synthetic substrate A; 30 min, 20° C.
Procedure: as §7

Compound: N[C@@H](CS)C(=O)O [Cystein]
- Collagenase inhibition IC50, Substrate C [1]: IC50 = 1.56%
- IC50 (Collagenase inhibition) [2]: IC50 = 1.56%

Compound: C[C@@H]1C[C@H]2[C@@H]3CCC4=CC(=O)C=C[C@]4(C)[C@@]3(F)[C@@H](O)C[C@]2(C)[C@@]1(O)C(=O)CO [Dexamethasone, dexamethasone]
- MMP-1 in ng/ml (Human MMP-1; UVA 20 J/cm^2): 7 ng/mL
- MMP-1 in ng/ml (Human MMP-1; without UVA radiation): 2 ng/mL
- TIMP-1 in ng/ml (TIMP-1; UVA 20 J/cm^2): 19 ng/mL
- TIMP-1 in ng/ml (TIMP-1; without UVA radiation): 39 ng/mL

Compound: C[C@@H]1C[C@H]2[C@@H]3CCC4=CC(=O)C=C[C@]4(C)[C@@]3(F)[C@@H](O)C[C@]2(C)[C@@]1(O)C(=O)CO [Dexamethasone]
- content of MMP-1 (in words) [3]: content of MMP-1 was already reduced
- content of TIMP-1 (in words) [4]: reduction in the content of TIMP-1

Compound: Oc1ccc(O)cc1 [Hydroquinone, hydroquinone]
- Tyrosinase in tubo EC50 (tyrosinase [5]): EC50 = 0.025%
- Melanin synthesis Index (B16 melanocytes): 2.21

Compound: Oc1ccc(O)cc1 [Hydroquinone]
- EC50 (Tyrosinase in tubo) (Tyrosinase [6]): EC50 = 0.025%

- Elastase inhibition IC50, Substrate B (pancreas elastase [7]): IC50 = 0.034%
- Elastase inhibition IC50, Substrate A (pancreas elastase [8]): IC50 = 0.01%
Compound: α1-antitrypsin

From US7105184B2, “Cosmetic and/or dermopharmaceutical preparations containing leaf extracts of the plant Argania spinosa” (Cognis France S.A., priority 2000, dated 2006)
